Laboratory results: US9512087B2, “Hybrid molecules containing pharmacophores of fluconazole as antifungal agents and their preparation” (Council for Scientific & Industrial Research, priority 2011, dated 2016)
≈ marks a conversion by molar mass, not a printed value.

Assays:
Test in all cases: Antifungal MIC, broth dilution
[1] = system: C. albicans ATCC 24433; format: cell-based, Candida albicans; conditions: end point 48 hours; for MIC80 / MIC50: Candida albicans, ATCC24433, RPMI 1640 with MOPS; for MIC80: read-out: Ca01 A: MIC80; for MIC50: read-out: Ca01 B: MIC50; for Ca01 A: MIC80 / Ca01 B: MIC50: RPMI 1640 with MOPS
Method: (§1) The compounds of Formula 1 were tested for antifungal activity against Candida albicans, Aspergillus niger and Fusarium proliferatum. In vitro evaluation of antifungal activity was performed by determining the minimum inhibitory concentration (MIC) following standard methods (CLSI: Reference method for broth dilution antifungal susceptibility testing of yeasts; Approved standard, second edition M27-A2, 2002; CLSI: Reference method for broth dilution antifungal susceptibility testing of filamentous fungi; Approved standard M38-A, 2002). Anti-fungal susceptibility testing of these anti-fungal compounds was done by broth dilution method using RPMI 1640 medium with MOPS buffer. Known anti-fungal agents like fluconazole and amphotericin-B were used as positive control. End points were determined after 48 hours visually and by using spectrophotometer wherever necessary. Different dilutions were tried and various sets of experiments performed. The activity parameters are enumerated in Table 5.

[2] = system: C. glabrata ATCC 90030; format: cell-based; conditions: end point 48 hours; for MIC50: Nakaseomyces glabratus, ATCC90030, RPMI 1640 with MOPS, read-out: Cg01 MIC50; for Cg01 MIC50: RPMI 1640 with MOPS
[3] = system: C. krusei ATCC 6258; format: cell-based; conditions: end point 48 hours; for MIC50: Pichia kudriavzevii, ATCC6258, RPMI 1640 with MOPS, read-out: Ck01 MIC50; for Ck01 MIC50: RPMI 1640 with MOPS
[4] = system: C. tropicalis ATCC 750; format: cell-based; conditions: end point 48 hours; for MIC50: Candida tropicalis, ATCC750, RPMI 1640 with MOPS, read-out: Ct01 MIC50; for Ct01 MIC50: RPMI 1640 with MOPS
[5] = system: C. neoformans ATCC 34664; format: cell-based; conditions: end point 48 hours; for MIC50: Cryptococcus neoformans, ATCC34664, RPMI 1640 with MOPS, read-out: Cn01 MIC50; for Cn01 MIC50: RPMI 1640 with MOPS
[6] = system: A. niger ATCC 16404; format: cell-based, Aspergillus niger; conditions: end point 48 hours; for MIC50: Aspergillus niger, ATCC16404, RPMI 1640 with MOPS, read-out: An01 MIC50; for An01 MIC50: RPMI 1640 with MOPS
Method: as §1

[7] = system: A. fumigatus ATCC 46645; format: cell-based; conditions: end point 48 hours; for MIC50: Aspergillus fumigatus, ATCC46645, RPMI 1640 with MOPS, read-out: Afm01 MIC50; for Afm01 MIC50: RPMI 1640 with MOPS
[8] = system: F. proliferatum ATCC 10052; format: cell-based, Fusarium proliferatum; conditions: end point 48 hours; for MIC50: Fusarium proliferatum, ATCC10052, RPMI 1640 with MOPS, read-out: Fp01 MIC50; for Fp01 MIC50: RPMI 1640 with MOPS
Method: as §1

Row | SMILES | MIC80 [1] | MIC50 [1] | MIC50 [2] | MIC50 [3] | MIC50 [4] | MIC50 [5] | MIC50 [6] | MIC50 [7] | MIC50 [8] | Ca01 A: MIC80 [1] | Ca01 B: MIC50 [1] | Cg01 MIC50 [2] | Ck01 MIC50 [3] | Ct01 MIC50 [4] | Cn01 MIC50 [5] | An01 MIC50 [6] | Afm01 MIC50 [7] | Fp01 MIC50 [8]
1 | O=C(/C=C/c1ccc(Cl)cc1Cl)c1ccc(OCC(O)(Cn2cncn2)c2ccc(F)cc2F)cc1 (stereo not drawn) [Compound 1A-7, (E)-3-(2,4-dichlorophenyl)-1-(4-(2-(2,4-difluorophenyl)-2-hydroxy-3-(1H-1,2,4-triazol-1-yl)propoxy)phenyl)prop-2-en-1-one] | 0.25 µg/mL (≈ 0.471 µM) | 0.25 µg/mL (≈ 0.471 µM) | 0.5 µg/mL (≈ 0.943 µM) | 2 µg/mL (≈ 3.77 µM) | 1 µg/mL (≈ 1.89 µM) | 2 µg/mL (≈ 3.77 µM) | > 4 µg/mL | > 4 µg/mL | > 4 µg/mL | – | – | – | – | – | – | – | – | –
2 | O=C(/C=C/c1ccccc1)c1ccc(OCC(O)(Cn2cncn2)c2ccc(F)cc2F)cc1 (stereo not drawn) [Compound 1A-1] | 0.12 µg/mL (≈ 0.26 µM) | 0.06 µg/mL (≈ 0.13 µM) | 0.25 µg/mL (≈ 0.542 µM) | > 2 µg/mL | 0.5 µg/mL (≈ 1.08 µM) | 1 µg/mL (≈ 2.17 µM) | > 2 µg/mL | > 2 µg/mL | > 2 µg/mL | – | – | – | – | – | – | – | – | –
3 | O=C(/C=C/c1ccc(OCC(O)(Cn2cncn2)c2ccc(F)cc2F)cc1)C1CC1 (stereo not drawn) [Compound 1A-28] | – | – | – | – | – | – | – | – | – | 0.06 µg/mL | 0.015 µg/mL | 0.03 µg/mL | 1 µg/mL | 0.25 µg/mL | 2 µg/mL | 8 µg/mL | 16 µg/mL | >16 µg/mL
4 | CCCCCCCCCCCCCCC(=O)/C=C/c1ccc(OCC(O)(Cn2cncn2)c2ccc(F)cc2F)cc1 (stereo not drawn) [Compound 1A-27] | – | – | – | – | – | – | – | – | – | >1 µg/mL | >1 µg/mL | >1 µg/mL | >1 µg/mL | >1 µg/mL | >1 µg/mL | >1 µg/mL | >1 µg/mL | >1 µg/mL
5 | O=C(/C=C/c1cccs1)c1ccc(OC[C@@](O)(Cn2cncn2)c2ccc(F)cc2F)cc1 [S-(+)-1A-13] | 0.5 µg/mL (≈ 1.07 µM) | 0.25 µg/mL (≈ 0.535 µM) | 0.25 µg/mL (≈ 0.535 µM) | > 4 µg/mL | 2 µg/mL (≈ 4.28 µM) | 4 µg/mL (≈ 8.56 µM) | > 4 µg/mL | > 4 µg/mL | > 4 µg/mL | – | – | – | – | – | – | – | – | –
6 | O=C(/C=C/c1ccc(Cl)cc1)c1ccc(OCC(O)(Cn2cncn2)c2ccc(F)cc2)cc1 (stereo not drawn) [Compound 1A-12] | 2 µg/mL (≈ 4.18 µM) | 0.5 µg/mL (≈ 1.05 µM) | 0.5 µg/mL (≈ 1.05 µM) | 4 µg/mL (≈ 8.37 µM) | 4 µg/mL (≈ 8.37 µM) | 0.5 µg/mL (≈ 1.05 µM) | > 4 µg/mL | > 4 µg/mL | > 4 µg/mL | – | – | – | – | – | – | – | – | –

More lines, in order of falling MIC50 [1], values ahead:

Row | MIC80 [1] | MIC50 [1] | MIC50 [2] | MIC50 [3] | MIC50 [4] | MIC50 [5] | MIC50 [6] | MIC50 [7] | MIC50 [8] | Ca01 A: MIC80 [1] | Ca01 B: MIC50 [1] | Cg01 MIC50 [2] | Ck01 MIC50 [3] | Ct01 MIC50 [4] | Cn01 MIC50 [5] | An01 MIC50 [6] | Afm01 MIC50 [7] | Fp01 MIC50 [8] | SMILES
7 | 2 µg/mL (≈ 4.03 µM) | 1 µg/mL (≈ 2.02 µM) | 0.5 µg/mL (≈ 1.01 µM) | 4 µg/mL (≈ 8.07 µM) | 2 µg/mL (≈ 4.03 µM) | 2 µg/mL (≈ 4.03 µM) | > 4 µg/mL | > 4 µg/mL | > 4 µg/mL | – | – | – | – | – | – | – | – | – | O=C(/C=C/c1ccc(Cl)cc1)c1ccc(OC[C@@](O)(Cn2cncn2)c2ccc(F)cc2F)cc1 [S-(+)-1A-6, S-(+)-(E)-3-(4-chlorophenyl)-1-(4-(2-(2,4-difluorophenyl)-2-hydroxy-3-(1H-1,2,4-triazol-1-yl)propoxy)phenyl)prop-2-en-1-one]
8 | 0.5 µg/mL (≈ 0.922 µM) | 0.5 µg/mL (≈ 0.922 µM) | 1 µg/mL (≈ 1.84 µM) | 2 µg/mL (≈ 3.69 µM) | 0.5 µg/mL (≈ 0.922 µM) | 1 µg/mL (≈ 1.84 µM) | > 4 µg/mL | > 4 µg/mL | > 4 µg/mL | – | – | – | – | – | – | – | – | – | OC(COc1ccc(-c2cc(-c3ccc(Cl)cc3Cl)[nH]n2)cc1)(Cn1cncn1)c1ccc(F)cc1F (stereo not drawn) [Compound 1D-1, 1-(4-(5-(2,4-dichlorophenyl)-1H-pyrazol-3-yl)phenoxy)-2-(2,4-difluorophenyl)-3-(1H-1,2,4-triazol-1-yl)propan-2-ol]
9 | 0.5 µg/mL (≈ 0.972 µM) | 0.25 µg/mL (≈ 0.486 µM) | 2 µg/mL (≈ 3.89 µM) | > 4 µg/mL | 2 µg/mL (≈ 3.89 µM) | 4 µg/mL (≈ 7.77 µM) | > 4 µg/mL | > 4 µg/mL | > 4 µg/mL | – | – | – | – | – | – | – | – | – | Cn1cc(/C=C/C(=O)c2ccc(OCC(O)(Cn3cncn3)c3ccc(F)cc3F)cc2)c2ccccc21 (stereo not drawn) [Compound 1A-16]
10 | 0.12 µg/mL (≈ 0.25 µM) | 0.12 µg/mL (≈ 0.25 µM) | 0.25 µg/mL (≈ 0.521 µM) | 4 µg/mL (≈ 8.34 µM) | 0.5 µg/mL (≈ 1.04 µM) | 2 µg/mL (≈ 4.17 µM) | > 4 µg/mL | > 4 µg/mL | > 4 µg/mL | – | – | – | – | – | – | – | – | – | O=C(/C=C/c1ccccc1F)c1ccc(OCC(O)(Cn2cncn2)c2ccc(F)cc2F)cc1 (stereo not drawn) [Compound 1A-8]
